{
  "source": "ChEMBL document CHEMBL3124886",
  "about": "“Potent Hepatitis C Virus NS5A Inhibitors Containing a Benzidine Core” (ACS Med Chem Lett, 2014)",
  "key": {"[1]": {"test_system": "Hepatitis C virus", "test": "Antiviral activity against Hepatitis C virus type 2a expressing JFH1 assessed as inhibition of infection in human Huh7.5.1 cells after 3 days by luciferase reporter gene assay", "format": "functional, organism-based, Hepacivirus hominis", "conditions": "genotype 2a, Huh-7, 72 h"}, "[2]": {"test": "Cytotoxicity against human Huh7.5.1 cells", "format": "cell-based", "conditions": "huh-7"}, "[3]": {"test_system": "Hepatitis C virus", "test": "Antiviral activity against Hepatitis C virus genotype 1b expressed in human Huh7.5.1 cells coexpressing NKR2AN after 3 days by luciferase reporter gene assay", "format": "functional, organism-based, Hepacivirus hominis", "conditions": "Huh-7, 72 h"}, "[4]": {"target": "CYP3A4 (Homo sapiens, UniProt P08684)", "sequence (P08684 whole entry)": "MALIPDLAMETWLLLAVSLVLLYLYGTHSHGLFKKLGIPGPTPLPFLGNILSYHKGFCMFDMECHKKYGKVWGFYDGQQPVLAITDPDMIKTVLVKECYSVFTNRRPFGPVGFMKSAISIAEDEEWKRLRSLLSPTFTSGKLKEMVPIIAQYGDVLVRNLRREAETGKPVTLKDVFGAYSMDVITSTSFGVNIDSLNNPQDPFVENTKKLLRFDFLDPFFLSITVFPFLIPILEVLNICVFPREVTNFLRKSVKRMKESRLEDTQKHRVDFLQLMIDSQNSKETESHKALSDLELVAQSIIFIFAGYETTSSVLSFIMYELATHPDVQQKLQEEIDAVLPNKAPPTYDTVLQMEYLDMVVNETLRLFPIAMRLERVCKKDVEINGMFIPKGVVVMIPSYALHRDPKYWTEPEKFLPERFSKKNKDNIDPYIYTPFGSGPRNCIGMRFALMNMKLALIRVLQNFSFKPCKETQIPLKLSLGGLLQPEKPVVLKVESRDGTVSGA", "test": "Inhibition of CYP3A4 (unknown origin) at 10 uM relative to control", "format": "ADME"}, "[5]": {"test": "Metabolic stability in rat plasma assessed as compound remaining at 2 uM after 4 hrs", "format": "ADME, cell-free", "conditions": "read-out: Stability"}, "[6]": {"target": "Voltage-gated inwardly rectifying potassium channel KCNH2 (Homo sapiens, UniProt Q12809)", "sequence (Q12809 whole entry)": "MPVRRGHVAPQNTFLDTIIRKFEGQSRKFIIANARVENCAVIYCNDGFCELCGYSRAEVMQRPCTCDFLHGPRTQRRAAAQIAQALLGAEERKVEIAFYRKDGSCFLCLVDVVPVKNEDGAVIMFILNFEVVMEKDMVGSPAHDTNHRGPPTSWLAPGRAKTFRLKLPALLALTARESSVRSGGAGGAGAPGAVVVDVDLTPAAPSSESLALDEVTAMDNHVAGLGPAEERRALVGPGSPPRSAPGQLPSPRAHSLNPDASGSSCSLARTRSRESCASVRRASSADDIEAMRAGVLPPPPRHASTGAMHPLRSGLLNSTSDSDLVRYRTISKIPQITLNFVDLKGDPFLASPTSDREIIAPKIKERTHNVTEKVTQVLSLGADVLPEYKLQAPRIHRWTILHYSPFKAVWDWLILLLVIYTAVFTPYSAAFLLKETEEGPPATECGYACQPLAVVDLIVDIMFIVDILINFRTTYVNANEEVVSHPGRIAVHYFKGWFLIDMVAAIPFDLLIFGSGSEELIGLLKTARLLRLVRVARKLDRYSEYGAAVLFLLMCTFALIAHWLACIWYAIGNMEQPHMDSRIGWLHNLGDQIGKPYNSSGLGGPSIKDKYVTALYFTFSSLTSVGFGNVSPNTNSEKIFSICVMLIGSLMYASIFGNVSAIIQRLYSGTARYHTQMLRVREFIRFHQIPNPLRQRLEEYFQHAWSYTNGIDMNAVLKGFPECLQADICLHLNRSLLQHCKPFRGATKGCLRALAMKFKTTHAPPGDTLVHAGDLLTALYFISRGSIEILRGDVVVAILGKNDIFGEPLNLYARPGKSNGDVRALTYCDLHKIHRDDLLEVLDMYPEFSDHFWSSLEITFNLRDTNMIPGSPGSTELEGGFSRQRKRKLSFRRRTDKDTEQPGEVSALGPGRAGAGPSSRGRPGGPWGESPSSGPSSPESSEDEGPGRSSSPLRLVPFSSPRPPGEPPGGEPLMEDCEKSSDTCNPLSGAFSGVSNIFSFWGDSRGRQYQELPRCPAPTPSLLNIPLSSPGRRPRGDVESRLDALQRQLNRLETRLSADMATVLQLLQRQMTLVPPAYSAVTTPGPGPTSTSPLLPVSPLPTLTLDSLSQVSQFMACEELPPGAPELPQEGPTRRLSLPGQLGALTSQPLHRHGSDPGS", "test": "Binding affinity to human ERG by fluorescence polarization assay"}, "[7]": {"test": "Selectivity index, ratio of cytotoxicity for human Huh7.5.1 cells to EC50 for Hepatitis C virus type 2a", "format": "toxicity, cell-based, Huh-7", "conditions": "read-out: Selectivity Index"}, "[8]": {"test": "Metabolic stability in rat plasma assessed as compound remaining at 2 uM after 1 hr", "format": "ADME, cell-free", "conditions": "read-out: Stability"}, "[9]": {"target": "CYP2D6 (Homo sapiens, UniProt P10635)", "sequence (P10635 whole entry)": "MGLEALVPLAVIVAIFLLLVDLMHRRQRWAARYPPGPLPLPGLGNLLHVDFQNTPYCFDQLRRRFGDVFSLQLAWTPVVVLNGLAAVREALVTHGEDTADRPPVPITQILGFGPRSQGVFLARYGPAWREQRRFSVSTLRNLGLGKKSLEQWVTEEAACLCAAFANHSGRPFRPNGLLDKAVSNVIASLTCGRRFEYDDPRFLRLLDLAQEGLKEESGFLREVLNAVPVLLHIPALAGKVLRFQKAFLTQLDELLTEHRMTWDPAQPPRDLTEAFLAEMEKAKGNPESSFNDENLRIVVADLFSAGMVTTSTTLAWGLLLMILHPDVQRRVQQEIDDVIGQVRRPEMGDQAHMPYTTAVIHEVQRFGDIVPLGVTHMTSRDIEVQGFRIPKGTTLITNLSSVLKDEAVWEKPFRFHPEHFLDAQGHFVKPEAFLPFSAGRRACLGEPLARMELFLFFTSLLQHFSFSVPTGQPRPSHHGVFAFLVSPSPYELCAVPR", "test": "Inhibition of CYP2D6 (unknown origin) at 10 uM relative to control", "format": "ADME"}, "[10]": {"test": "Selectivity index, ratio of cytotoxicity for human Huh7.5.1 cells to EC50 for Hepatitis C virus genotype 1b", "format": "toxicity, cell-based, Huh-7", "conditions": "read-out: Selectivity Index"}, "[11]": {"target": "CYP2C9 (Homo sapiens, UniProt P11712)", "sequence (P11712 whole entry)": "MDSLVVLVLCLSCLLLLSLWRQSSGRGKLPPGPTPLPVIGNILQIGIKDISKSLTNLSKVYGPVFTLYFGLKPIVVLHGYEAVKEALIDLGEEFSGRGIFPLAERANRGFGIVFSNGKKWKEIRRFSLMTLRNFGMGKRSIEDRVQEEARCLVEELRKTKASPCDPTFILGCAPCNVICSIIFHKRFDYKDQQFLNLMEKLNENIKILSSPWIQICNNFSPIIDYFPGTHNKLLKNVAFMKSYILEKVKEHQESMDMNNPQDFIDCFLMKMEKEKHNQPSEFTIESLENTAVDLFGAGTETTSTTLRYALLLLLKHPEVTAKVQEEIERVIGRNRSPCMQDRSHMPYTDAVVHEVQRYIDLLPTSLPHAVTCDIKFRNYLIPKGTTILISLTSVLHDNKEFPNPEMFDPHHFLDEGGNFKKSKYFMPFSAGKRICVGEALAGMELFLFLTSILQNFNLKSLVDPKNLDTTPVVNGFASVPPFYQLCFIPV", "test": "Inhibition of CYP2C9 (unknown origin) at 10 uM relative to control", "format": "ADME"}, "[12]": {"test": "Metabolic stability in rat plasma assessed as compound remaining at 2 uM after 0.5 hrs", "format": "ADME, cell-free", "conditions": "read-out: Stability"}, "[13]": {"target": "T1, CYP1A2 (Homo sapiens, UniProt P05177)", "T1 sequence (P05177 whole entry)": "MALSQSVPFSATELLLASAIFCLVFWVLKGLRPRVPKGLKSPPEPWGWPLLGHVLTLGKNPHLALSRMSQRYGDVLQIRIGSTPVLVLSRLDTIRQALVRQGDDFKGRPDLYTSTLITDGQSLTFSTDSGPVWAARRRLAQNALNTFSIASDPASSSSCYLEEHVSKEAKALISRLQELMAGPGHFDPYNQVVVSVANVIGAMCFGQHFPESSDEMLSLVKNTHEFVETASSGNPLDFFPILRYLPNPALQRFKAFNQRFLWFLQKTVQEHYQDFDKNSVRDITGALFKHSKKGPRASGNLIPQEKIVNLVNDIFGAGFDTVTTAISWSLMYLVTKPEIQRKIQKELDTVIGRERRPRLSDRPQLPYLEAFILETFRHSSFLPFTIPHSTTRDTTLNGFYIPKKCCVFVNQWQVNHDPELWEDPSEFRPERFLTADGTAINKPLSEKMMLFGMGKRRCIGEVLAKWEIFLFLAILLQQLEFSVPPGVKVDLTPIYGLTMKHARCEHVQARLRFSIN", "test": "Inhibition of CYP1A2 (unknown origin) at 10 uM relative to control", "format": "ADME"}},
  "data": [
    {"molecule": "COC(=O)N[C@@H](C(=O)N1CCC[C@H]1C(=O)Nc1ccc(-c2ccc(NC(=O)[C@@H]3CCCN3C(=O)[C@H](NC(=O)OC)C(C)C)cc2)cc1)C(C)C", "values": [
      {"measurement": "EC50", "setting": "[1]", "value": 15, "unit": "nM"}
    ]},
    {"molecule": "COC(=O)N[C@H](C(=O)N1CCC[C@H]1C(=O)Nc1ccc(-c2ccc(NC(=O)[C@@H]3CCCN3C(=O)[C@@H](NC(=O)OC)C(C)C)cc2)cc1)C(C)C", "values": [
      {"measurement": "EC50", "setting": "[1]", "value": 120, "unit": "nM"}
    ]},
    {"molecule": "COC(=O)N[C@@H](C(=O)N1CCC[C@H]1C(=O)Nc1ccc(-c2ccc(NC(=O)[C@@H]3CCCN3C(=O)[C@H](NC(=O)OC)c3ccccc3)cc2)cc1)c1ccccc1", "values": [
      {"measurement": "Activity", "setting": "[2]", "value": "> 25", "unit": "µM"},
      {"measurement": "EC50", "setting": "[3]", "value": 0.028, "unit": "nM"},
      {"measurement": "inhibition at 10 µM", "setting": "[4]", "value": 23.9, "unit": "%"},
      {"measurement": "remaining at 4 h, 2 µM", "setting": "[5]", "value": "> 99", "unit": "%"},
      {"measurement": "EC50", "setting": "[6]", "value": 9800, "unit": "nM"},
      {"measurement": "selectivity ratio", "setting": "[7]", "value": "> 96000"},
      {"measurement": "remaining at 1 h, 2 µM", "setting": "[8]", "value": "> 99", "unit": "%"},
      {"measurement": "inhibition at 10 µM", "setting": "[9]", "value": 0, "unit": "%"},
      {"measurement": "EC50", "setting": "[1]", "value": 0.26, "unit": "nM"},
      {"measurement": "selectivity ratio", "setting": "[10]", "value": "> 893000"},
      {"measurement": "inhibition at 10 µM", "setting": "[11]", "value": 0, "unit": "%"},
      {"measurement": "remaining at 0.5 h, 2 µM", "setting": "[12]", "value": "> 99", "unit": "%"},
      {"measurement": "inhibition at 10 µM", "setting": "[13]", "value": 18.1, "unit": "%"}
    ]},
    {"molecule": "CN(C)[C@@H](C(=O)N1CCC[C@H]1C(=O)Nc1ccc(-c2ccc(NC(=O)[C@@H]3CCCN3C(=O)[C@@H](c3ccccc3)N(C)C)cc2)cc1)c1ccccc1", "values": [
      {"measurement": "Activity", "setting": "[2]", "value": "> 25", "unit": "µM"},
      {"measurement": "EC50", "setting": "[3]", "value": 0.43, "unit": "nM"},
      {"measurement": "selectivity ratio", "setting": "[7]", "value": "> 11000"},
      {"measurement": "EC50", "setting": "[1]", "value": 2.3, "unit": "nM"},
      {"measurement": "selectivity ratio", "setting": "[10]", "value": "> 58000"}
    ]},
    {"molecule": "CCN(CC)[C@@H](C(=O)N1CCC[C@H]1C(=O)Nc1ccc(-c2ccc(NC(=O)[C@@H]3CCCN3C(=O)[C@@H](c3ccccc3)N(CC)CC)cc2)cc1)c1ccccc1", "values": [
      {"measurement": "Activity", "setting": "[2]", "value": "> 25", "unit": "µM"},
      {"measurement": "EC50", "setting": "[3]", "value": 0.27, "unit": "nM"},
      {"measurement": "selectivity ratio", "setting": "[7]", "value": "> 11000"},
      {"measurement": "EC50", "setting": "[1]", "value": 2.2, "unit": "nM"},
      {"measurement": "selectivity ratio", "setting": "[10]", "value": "> 93000"}
    ]},
    {"molecule": "COC(=O)N[C@@H](C)C(=O)N1CCC[C@H]1C(=O)Nc1ccc(-c2ccc(NC(=O)[C@@H]3CCCN3C(=O)[C@H](C)NC(=O)OC)cc2)cc1", "values": [
      {"measurement": "EC50", "setting": "[1]", "value": "> 1000", "unit": "nM"}
    ]},
    {"molecule": "COC(=O)N[C@H](C(=O)N1CCC[C@H]1C(=O)Nc1ccc(-c2ccc(NC(=O)[C@@H]3CCCN3C(=O)[C@@H](NC(=O)OC)C(C)(C)C)cc2)cc1)C(C)(C)C", "values": [
      {"measurement": "EC50", "setting": "[1]", "value": 24, "unit": "nM"}
    ]},
    {"molecule": "O=C(Nc1ccc(-c2ccc(NC(=O)[C@@H]3CCCN3C(=O)[C@H]3CCCO3)cc2)cc1)[C@@H]1CCCN1C(=O)[C@H]1CCCO1", "values": [
      {"measurement": "EC50", "setting": "[1]", "value": 400, "unit": "nM"}
    ]},
    {"molecule": "CC(=O)N1CCN(c2ccc(OCC3COC(Cn4ccnc4)(c4ccc(Cl)cc4Cl)O3)cc2)CC1", "note": "(racemic) [KETOCONAZOLE]", "values": [
      {"measurement": "inhibition at 10 µM", "setting": "[4]", "value": 95.3, "unit": "%"}
    ]},
    {"molecule": "O=c1cc(-c2ccccc2)oc2c1ccc1ccccc12", "note": "[ALPHA-NAPHTHOFLAVONE]", "values": [
      {"measurement": "inhibition at 10 µM", "setting": "[13]", "value": 98.6, "unit": "%"}
    ]},
    {"molecule": "C=C[C@H]1C[N@@]2CC[C@H]1C[C@@H]2[C@@H](O)c1ccnc2ccc(OC)cc12", "note": "[QUINIDINE]", "values": [
      {"measurement": "inhibition at 10 µM", "setting": "[9]", "value": 95.1, "unit": "%"}
    ]},
    {"molecule": "Nc1ccc(S(=O)(=O)Nc2ccnn2-c2ccccc2)cc1", "note": "[SULFAPHENAZOLE]", "values": [
      {"measurement": "inhibition at 10 µM", "setting": "[11]", "value": 75.8, "unit": "%"}
    ]}
  ]
}
